Values quoted from earlier work in US20080124279A1, “Colonic delivery using Zn/pectin beads with a Eudragit coating” (priority 2006, published 2008).
Read-outs that look alike come from different tables or passages of the source.

Columns and labels:
IMP-1 = IMP-1 (Serratia marcescens, UniProt P52699)
VIM-2 = VIM-2 (Escherichia coli, UniProt Q5U7L7)
L-1(wt) = L-1(wt) (Stenotrophomonas maltophilia, UniProt P52700)
Sequence of L-1(wt) (P52700 34-290): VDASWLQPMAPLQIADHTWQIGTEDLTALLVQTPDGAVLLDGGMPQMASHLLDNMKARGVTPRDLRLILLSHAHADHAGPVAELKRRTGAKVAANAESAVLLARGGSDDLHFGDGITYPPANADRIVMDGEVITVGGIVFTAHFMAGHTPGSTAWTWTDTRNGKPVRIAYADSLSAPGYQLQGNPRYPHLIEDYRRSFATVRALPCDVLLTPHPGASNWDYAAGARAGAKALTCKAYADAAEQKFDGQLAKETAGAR

Sequence of IMP-1 (P52699 19-246 limits assumed): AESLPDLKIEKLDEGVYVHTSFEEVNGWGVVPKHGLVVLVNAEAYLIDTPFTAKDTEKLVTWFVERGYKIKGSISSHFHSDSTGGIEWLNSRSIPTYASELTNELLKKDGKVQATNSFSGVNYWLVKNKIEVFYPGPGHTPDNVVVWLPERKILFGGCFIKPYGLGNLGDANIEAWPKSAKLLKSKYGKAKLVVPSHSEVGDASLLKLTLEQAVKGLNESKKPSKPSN

| Structure (SMILES) | Kcat (IMP-1) | Km (IMP-1; read-out: Km) | Kcat (FEZ-1) | Km (FEZ-1) | Kcat (VIM-2) | Km (VIM-2; read-out: Km) | Km (VIM-2) | Kcat (L-1(wt)) | Km (L-1(wt)) | Km (IMP-1) |
| --- | --- | --- | --- | --- | --- | --- | --- | --- | --- | --- |
| O=C(Cc1cccs1)N[C@@H]1C(=O)N2C(C(=O)[O-])=C(C[n+]3ccccc3)CS[C@H]12 [Cephaloridin] | 53 s⁻¹ | 22 µM | 16 s⁻¹ | 1000 µM | 140 s⁻¹ | 50 µM |  |  |  |  |
| CO/N=C(\C(=O)N[C@@H]1C(=O)N2C(C(=O)[O-])=C(C[n+]3cccc4c3CCC4)CS[C@H]12)c1csc(N)n1 [Cefpirom] | 9 s⁻¹ | 14 µM |  |  | 180 s⁻¹ | 180 µM |  |  |  |  |
| CCN1CCN(C(=O)N[C@@H](C(=O)N[C@@H]2C(=O)N3[C@@H]2SC(C)(C)[C@@H]3C(=O)O)c2ccccc2)C(=O)C1=O [Pipericillin] |  |  | 50 s⁻¹ | 4200 µM | 300 s⁻¹ | 125 µM |  |  |  |  |
| CO[C@@]1(NC(=O)C(C(=O)O)c2ccsc2)C(=O)N2[C@@H](C(=O)O)C(C)(C)S[C@@H]21 (stereo partly drawn) [Timocillin] |  | > 2000 µM |  |  | 7.7 s⁻¹ | 390 µM |  |  |  |  |
| CC1(C)S[C@@H]2[C@H](NC(=O)[C@H](NC(=O)N3CCN(S(C)(=O)=O)C3=O)c3ccccc3)C(=O)N2[C@H]1C(=O)O [Mezlocillin] |  |  |  |  | 200 s⁻¹ |  | 125 µM |  |  |  |
| CC(C)(O/N=C(\C(=O)N[C@@H]1C(=O)N2C(C(=O)[O-])=C(C[n+]3ccccc3)CS[C@H]12)c1csc(N)n1)C(=O)O [Ceftazidin] | 8 s⁻¹ | 44 µM |  |  | 3.6 s⁻¹ | 72 µM |  |  |  |  |
| O=C(O)[C@H]1/C(=C/CO)O[C@@H]2CC(=O)N21 [Clavulanic Acid] |  |  | <0.01 s⁻¹ | > 1000 µM |  |  |  | 11 s⁻¹ | 22 µM |  |
| CC1(C)[C@H](C(=O)O)N2C(=O)C[C@H]2S1(=O)=O [Sulbactam] |  |  |  |  | 23 s⁻¹ | 320 µM |  |  |  |  |
| NC(=O)OC[C@@H]1[C@H](NC(=O)/C(=N\OCC(=O)O)c2csc(N)n2)C(=O)N1S(=O)(=O)O [Carumonam] | >0.01 s⁻¹ |  |  |  |  |  |  |  |  | > 1000 µM |
| CC1(C)S[C@@H]2[C@H](NC(=O)[C@H](C(=O)O)c3ccsc3)C(=O)N2[C@H]1C(=O)O [Ticarcillin] | 1.1 s⁻¹ |  | >65 s⁻¹ | > 5000 µM | 180 s⁻¹ |  | 125 µM |  |  | 740 µM |
| CC(=O)OCC1=C(C(=O)O)N2C(=O)[C@@H](NC(=O)Cc3cccs3)[C@H]2SC1 [Cephalothin] | 48 s⁻¹ |  |  |  | 130 s⁻¹ |  | 11 µM | 82 s⁻¹ | 8.9 µM |  |
| C[C@@H](O)[C@H]1C(=O)N2C(C(=O)O)=C(S[C@@H]3CN[C@H](C(=O)N(C)C)C3)[C@H](C)[C@H]12 [Meropenem] |  |  |  |  | 5 s⁻¹ |  | 2 µM | 157 s⁻¹ | 15 µM |  |
| CO/N=C(\C(=O)N[C@@H]1C(=O)N2C(C(=O)[O-])=C(C[N+]3(C)CCCC3)CS[C@H]12)c1csc(N)n1 [Cefepim] | 7 s⁻¹ | 11 µM | >6 s⁻¹ | > 1000 µM | >40 s⁻¹ | > 400 µM |  |  |  |  |
| CO[C@@]1(NC(=O)C(C(=O)O)c2ccc(O)cc2)C(=O)N2C(C(=O)O)=C(CSc3nnnn3C)CO[C@@H]21 (stereo partly drawn) [Moxalactam] |  |  | 3 s⁻¹ | 18 µM | 90 s⁻¹ |  | 55 µM |  |  |  |
| CC1(C)S[C@@H]2[C@H](NC(=O)C(C(=O)O)c3ccccc3)C(=O)N2[C@H]1C(=O)O (stereo partly drawn) [Cabenicillin] |  |  | 35 s⁻¹ | 1600 µM | 185 s⁻¹ | 205 µM |  |  |  |  |
| C[C@@H](O)[C@H]1C(=O)N2C(C(=O)[O-])=C(SC3Cn4cnc[n+]4C3)[C@H](C)[C@H]12 (stereo partly drawn) [Biapenem] | 160 s⁻¹ |  | 70 s⁻¹ | > 1000 µM | 8.5 s⁻¹ |  | 15 µM | 134 s⁻¹ | 32 µM | 28 µM |
| CO/N=C(\C(=O)N[C@@H]1C(=O)N2C(C(=O)O)=C(COC(C)=O)CS[C@H]12)c1csc(N)n1 [Cefotaxim] | 1.3 s⁻¹ | 4 µM | 165 s⁻¹ | 70 µM | 70 s⁻¹ | 12 µM |  | 270 s⁻¹ | 10 µM |  |
| CC1(C)S[C@@H]2[C@H](NC(=O)[C@H](N)c3ccccc3)C(=O)N2[C@H]1C(=O)O [Ampicillin] | 950 s⁻¹ |  | >5.5 s⁻¹ | > 5000 µM |  |  | 90 µM | 520 s⁻¹ | 55 µM | 200 µM |
| C[C@H]1[C@H](NC(=O)/C(=N\OC(C)(C)C(=O)O)c2csc(N)n2)C(=O)N1S(=O)(=O)O [Aztreonam] | >0.01 s⁻¹ |  |  |  | <0.01 s⁻¹ |  | > 1000 µM |  |  | > 1000 µM |
| CC1(C)S[C@@H]2[C@H](NC(=O)[C@H](NC(=O)N3CCNC3=O)c3ccccc3)C(=O)N2[C@H]1C(=O)O [Azlocillin] |  |  |  |  | 200 s⁻¹ |  | 200 µM |  |  |  |
| C[C@@H](O)[C@H]1C(=O)N2C(C(=O)O)=C(SCCN=CN)C[C@H]12 [Imipenem] |  |  |  |  |  |  | 9 µM |  | 57 µM | 39 µM |
| CO[C@@]1(NC(=O)Cc2cccs2)C(=O)N2C(C(=O)O)=C(COC(N)=O)CS[C@@H]21 [Cefoxitin] |  |  |  |  | 15 s⁻¹ |  | 13 µM | 1 s⁻¹ | 3 µM |  |
| O=C(Cc1cccs1)N[C@@H]1C(=O)N2C(C(=O)O)=C(/C=C/c3ccc([N+](=O)[O-])cc3[N+](=O)[O-])CS[C@H]12 [Nitrocefin] | 63 s⁻¹ |  | 90 s⁻¹ | 100 µM | 770 s⁻¹ |  | 18 µM | 41 s⁻¹ | 4 µM |  |
| C[C@]1(Cn2ccnn2)[C@H](C(=O)O)N2C(=O)C[C@H]2S1(=O)=O [Tazobactam] |  |  | 40 s⁻¹ | 700 µM | 28 s⁻¹ |  | 875 µM |  |  |  |
| CC1(C)S[C@@H]2[C@H](NC(=O)Cc3ccccc3)C(=O)N2[C@H]1C(=O)O [Benzylpenicillin] | 320 s⁻¹ |  | 70 s⁻¹ | 590 µM | 56 s⁻¹ |  | 49 µM | 600 s⁻¹ | 38 µM | 520 µM |
| CO/N=C(\C(=O)N[C@@H]1C(=O)N2C(C(=O)O)=C(COC(N)=O)CS[C@H]12)c1ccco1 [Cefuroxin] |  |  |  |  | 8 s⁻¹ | 20 µM |  |  |  |  |
